The values below come from ChEMBL document CHEMBL1152065, “Synthesis and anti-HIV activity of 9-[(2R-5R)-2,5-dihydro-5-(phosphonomethoxy)-2-furanyl]-2,6-diaminopurine” (Bioorg Med Chem Lett, 1992).

The subject of data set [1] is MT4. In words: Compound was evaluated for its ability to Inhibit HIV replication in MT-4 cells. In kind it is functional, cell-based, Homo sapiens.
Data set [2] can be described thus: Concentration of compound affecting viability of the uninfected cells by 50% when assayed in parallel with antiviral assay in MT-4 cells. Format: cell-based, MT4. Particulars: human, uninfected MT-4 cells; read-out: TC50 (the source's name).
Data set [3] has as its system MT4. In words: The compound was evaluated for its ability to Inhibit HIV replication in MT-4 cells. In kind it is functional, cell-based. The note with it: Homo sapiens.

Values joined by “and” are separate entries in the source; they are usually repeats but may differ in a detail not shown here. Equal values may be shown once. Where only a bound is given, the exact number is not on record here.

By IC50 is commonly meant the midpoint of a concentration-inhibition curve. High values mean lower potency, low ones higher potency. Molecule `Nc1nc(N)c2ncn([C@H]3C=C[C@@H](OCP(=O)(O)O)O3)c2n1` returned an IC50 in the data set with MT4 [1] (Homo sapiens, MT4) of 82.5 µM. Further, the CC50 in data set [2] was more than 100 µM.

In turn, `Nc1ncnc2c1ncn2[C@H]1C=C[C@@H](OCP(=O)(O)O)O1` showed an IC50 with MT4 [1] (Homo sapiens, MT4) of 4.3 µM. Besides, the CC50 in data set [2] is more than 100 µM.

In the case of `Nc1ncnc2c1ncn2CCOCP(=O)(O)O` [ADEFOVIR], the IC50 with MT4 [1] (mt4) was 6.5 µM and 2 µM. In data set [2], the CC50 turned out to be 40 µM.

Turning to `Nc1nc(N)c2ncn(CCOCP(=O)(O)O)c2n1` [PMEDAP], in the data set on MT4 [3], the IC50 was 1 µM.
